In US20230117470A1, “SUBSTITUTED PYRAZOLE COMPOUNDS AS TOLL RECEPTOR INHIBITORS” (BRISTOL-MYERS SQUIBB COMPANY, priority 2019, published 2023):

Legend:
Format in all cases: cell-based
human TLR7 = target: T1, human TLR7 (Homo sapiens, UniProt Q9NYK1); assay: TLR7 inhibition reporter assay (HEK-Blue cells, SEAP reporter, gardiquimod stimulation); details: HEK-Blue cells overexpressing human TLR7, SEAP reporter, gardiquimod 7.5 μM
T1 construct: host or cells: HEK-Blue cells
T1 sequence (Q9NYK1 27-1049): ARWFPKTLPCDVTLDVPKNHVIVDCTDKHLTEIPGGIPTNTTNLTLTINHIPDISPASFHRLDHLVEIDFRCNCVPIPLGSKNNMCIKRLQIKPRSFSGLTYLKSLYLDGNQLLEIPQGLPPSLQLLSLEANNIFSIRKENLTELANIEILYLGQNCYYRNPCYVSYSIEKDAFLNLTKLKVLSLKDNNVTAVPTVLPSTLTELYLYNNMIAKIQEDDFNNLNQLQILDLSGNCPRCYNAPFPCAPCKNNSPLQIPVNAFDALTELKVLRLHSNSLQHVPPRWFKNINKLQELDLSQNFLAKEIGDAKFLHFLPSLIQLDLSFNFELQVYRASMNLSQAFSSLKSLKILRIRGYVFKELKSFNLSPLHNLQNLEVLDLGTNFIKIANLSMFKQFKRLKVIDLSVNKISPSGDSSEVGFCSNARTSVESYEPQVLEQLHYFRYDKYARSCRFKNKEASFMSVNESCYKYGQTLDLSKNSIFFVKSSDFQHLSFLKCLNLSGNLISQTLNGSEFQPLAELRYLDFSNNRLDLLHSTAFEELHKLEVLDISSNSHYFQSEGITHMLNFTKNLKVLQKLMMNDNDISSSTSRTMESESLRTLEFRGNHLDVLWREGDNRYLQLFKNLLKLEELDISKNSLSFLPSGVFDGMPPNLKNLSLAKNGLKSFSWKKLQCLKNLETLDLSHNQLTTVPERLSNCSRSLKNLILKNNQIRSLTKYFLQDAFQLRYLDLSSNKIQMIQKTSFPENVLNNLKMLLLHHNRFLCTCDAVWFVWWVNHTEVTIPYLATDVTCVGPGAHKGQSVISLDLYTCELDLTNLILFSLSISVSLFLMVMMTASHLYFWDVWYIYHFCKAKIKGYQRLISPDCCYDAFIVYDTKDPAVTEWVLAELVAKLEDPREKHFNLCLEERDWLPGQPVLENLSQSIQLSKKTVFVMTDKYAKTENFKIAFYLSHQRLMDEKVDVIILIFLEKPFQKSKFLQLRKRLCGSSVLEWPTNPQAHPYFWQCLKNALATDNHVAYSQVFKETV
Method in brief: (§1)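 Cells were pre-treated 30 min at room temperature with compound (final 0.05 nM–50 μM), then stimulated with gardiquimod 7.5 μM (TLR7), R848 15.9 μM (TLR8) or ODN2006 5 nM (TLR9). SEAP was read after 22 h at 37° C; percent inhibition scaled between agonist+DMSO and known-inhibitor wells.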

human TLR8 = target: T2, human TLR8 (Homo sapiens, UniProt Q9NR97); assay: TLR8 inhibition reporter assay (HEK-Blue cells, SEAP reporter, R848 stimulation); details: HEK-Blue cells overexpressing human TLR8, SEAP reporter, R848 15.9 μM
T2 construct: host or cells: HEK-Blue cells
T2 sequence (Q9NR97 27-1041): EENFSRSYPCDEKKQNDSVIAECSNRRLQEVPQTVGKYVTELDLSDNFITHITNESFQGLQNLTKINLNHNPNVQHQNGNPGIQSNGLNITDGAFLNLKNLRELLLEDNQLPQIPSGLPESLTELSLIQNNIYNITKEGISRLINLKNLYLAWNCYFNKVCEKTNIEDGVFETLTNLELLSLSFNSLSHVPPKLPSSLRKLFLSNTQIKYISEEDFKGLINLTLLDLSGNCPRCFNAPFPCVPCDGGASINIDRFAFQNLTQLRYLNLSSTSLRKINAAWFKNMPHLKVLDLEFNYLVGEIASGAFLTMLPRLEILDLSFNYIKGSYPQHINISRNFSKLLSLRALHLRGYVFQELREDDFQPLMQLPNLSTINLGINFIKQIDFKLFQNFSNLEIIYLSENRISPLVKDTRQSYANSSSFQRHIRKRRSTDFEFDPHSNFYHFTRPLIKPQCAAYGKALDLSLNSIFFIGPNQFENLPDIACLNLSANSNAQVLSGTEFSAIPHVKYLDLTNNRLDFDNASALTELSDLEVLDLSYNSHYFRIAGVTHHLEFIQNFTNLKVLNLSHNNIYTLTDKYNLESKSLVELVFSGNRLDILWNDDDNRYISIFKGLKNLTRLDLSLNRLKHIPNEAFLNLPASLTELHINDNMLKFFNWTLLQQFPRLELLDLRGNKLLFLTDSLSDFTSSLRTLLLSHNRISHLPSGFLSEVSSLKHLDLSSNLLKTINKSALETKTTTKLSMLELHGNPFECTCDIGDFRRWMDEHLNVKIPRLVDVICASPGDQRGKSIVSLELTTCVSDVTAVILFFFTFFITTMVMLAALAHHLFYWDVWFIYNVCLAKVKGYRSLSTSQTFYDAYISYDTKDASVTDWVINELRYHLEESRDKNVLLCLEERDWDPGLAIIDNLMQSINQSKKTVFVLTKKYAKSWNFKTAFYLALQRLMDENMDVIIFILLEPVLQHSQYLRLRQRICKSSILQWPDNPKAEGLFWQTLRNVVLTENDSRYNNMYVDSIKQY
Method in brief: as §1

human TLR9 = target: T3, human TLR9 (Homo sapiens, UniProt Q9NR96); assay: TLR9 inhibition reporter assay (HEK-Blue cells, SEAP reporter, ODN2006 stimulation); details: HEK-Blue cells overexpressing human TLR9, SEAP reporter, ODN2006 5 nM
T3 construct: host or cells: HEK-Blue cells
T3 sequence (Q9NR96 26-1032): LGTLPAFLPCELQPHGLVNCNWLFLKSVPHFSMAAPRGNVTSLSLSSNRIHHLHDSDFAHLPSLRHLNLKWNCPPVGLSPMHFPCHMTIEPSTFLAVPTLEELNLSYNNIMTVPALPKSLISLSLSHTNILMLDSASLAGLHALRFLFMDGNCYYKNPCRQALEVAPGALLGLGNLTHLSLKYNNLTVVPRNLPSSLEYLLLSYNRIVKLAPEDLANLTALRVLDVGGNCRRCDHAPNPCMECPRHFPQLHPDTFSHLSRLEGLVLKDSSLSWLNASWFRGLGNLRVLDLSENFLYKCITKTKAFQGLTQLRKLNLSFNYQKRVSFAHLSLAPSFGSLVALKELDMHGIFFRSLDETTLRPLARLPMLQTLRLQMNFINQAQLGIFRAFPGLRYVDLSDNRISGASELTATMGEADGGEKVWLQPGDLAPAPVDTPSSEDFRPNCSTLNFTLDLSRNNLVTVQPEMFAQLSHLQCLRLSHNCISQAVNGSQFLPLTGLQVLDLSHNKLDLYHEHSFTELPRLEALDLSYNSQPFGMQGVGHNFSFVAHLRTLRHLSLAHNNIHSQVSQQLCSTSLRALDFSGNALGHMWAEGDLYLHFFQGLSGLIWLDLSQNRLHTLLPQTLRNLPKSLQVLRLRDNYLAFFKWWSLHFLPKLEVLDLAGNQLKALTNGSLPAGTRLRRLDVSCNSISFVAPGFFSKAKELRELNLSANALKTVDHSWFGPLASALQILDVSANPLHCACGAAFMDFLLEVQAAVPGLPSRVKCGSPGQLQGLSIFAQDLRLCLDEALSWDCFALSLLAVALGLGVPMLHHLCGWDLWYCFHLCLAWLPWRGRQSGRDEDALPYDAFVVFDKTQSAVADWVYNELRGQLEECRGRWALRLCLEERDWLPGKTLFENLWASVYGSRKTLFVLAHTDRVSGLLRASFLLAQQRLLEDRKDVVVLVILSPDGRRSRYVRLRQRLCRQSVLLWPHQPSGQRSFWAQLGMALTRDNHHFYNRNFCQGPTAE
Method in brief: as §1

SMILES | IC50 (human TLR7) [nM] | IC50 (human TLR8) [nM] | IC50 (human TLR9) [nM]
Cc1cc(-c2[nH]nc(C(=O)NC3CCN(C4CCOCC4)CC3)c2C(C)C)cn2ncnc12 [Example 153] | 27.8 | 6.62 | 22300
Cc1cc(-c2[nH]nc(-c3ccc(C4CCN(C(=O)CN(C)C)CC4)cc3)c2C(C)C)cn2ncnc12 [Example 323, 2-(dimethylamino)-1-(4-(4-(4-isopropyl-5-(8-methyl-[1,2,4]triazolo[1,5-a]pyridin-6-yl)-1H-pyrazol-3-yl)phenyl)piperidin-1-yl)ethan-1-one] | 22.4 | 3.86 | > 50000
COc1cc(-c2[nH]nc(-c3ccc(C4CN(C5CCOCC5)C4)cc3)c2C(C)C)cn2ncnc12 [Example 333] | 34.9 | 2.19 | 37400
Cc1cc(-c2[nH]nc(-c3nc4c(s3)CN(C3COC3)CC4)c2C(C)C)cn2ncnc12 [Example 253] | 4.7 | 3.01 | 23000
Cc1cc(-c2[nH]nc(C(=O)NCC3CN(CC(C)(C)O)CCO3)c2C(C)C)cn2ncnc12 (stereo not drawn) [Example 143] | 5.34 | 19.6 | 9280
Cc1cc(-c2[nH]nc(C3CCC(NC4CCN(C(C)C)CC4)CC3)c2C(C)C)cn2ncnc12 (single isomer, unassigned) [Example 288] | 15.2 | 0.52 | 14200
CNCc1n[nH]c(-c2cc(C)c3ncnn3c2)c1C(C)C [Example 185] | 7.42 | 3.38 | 23000
Cc1cc(-c2[nH]nc(-c3ccc(C4CCN(C5COC5)CC4)nc3)c2C(C)C)cn2ncnc12 [Example 362] | > 3130 | > 3130 | 25100
CC(C)c1c(C(=O)NC2CCN(C(C)C)CC2)n[nH]c1-c1cn(C)c2ncccc12 [Example 42] | 2.99 | 6.77 | 19000
CCCN1CCc2nc(-c3n[nH]c(-c4cc(OC)c5ncnn5c4)c3C(C)C)sc2C1 [Example 260] | 170 | 138 | > 50000
Cc1cc(-c2[nH]nc(C(=O)NC3CCCNC3)c2C(C)C)cn2ncnc12 (stereo not drawn) [Example 66] | 3.59 | 16.9 | 5710
Cc1cc(-c2[nH]nc(C(=O)NC3CCN(C(C)C)CC3)c2C(C)C)ccn1 [Example 38] | 7.93 | 4.43 | 2280
Cc1cc(-c2[nH]nc(C3CCC(NCC4(C)COC4)CC3)c2C(C)C)cn2ncnc12 (single isomer, unassigned) [Example 281] | 9.49 | 0.45 | 42600

Now those with a lower IC50 (human TLR7), led by results:

IC50 (human TLR7) [nM] | IC50 (human TLR8) [nM] | IC50 (human TLR9) [nM] | SMILES
1.38 | 43.2 | 2180 | Cc1cc(-c2[nH]nc(C(=O)N[C@H]3CC[C@H](NCC4CCOC4)CC3)c2C(C)C)cn2ncnc12 (stereo partly drawn) [Example 105]
1.89 | 15.6 | 12000 | Cc1noc(C)c1CN[C@H]1CC[C@@H](NC(=O)c2n[nH]c(-c3cc(C)c4ncnn4c3)c2C(C)C)CC1 [Example 93]
1.05 | 1.01 | 16600 | Cc1cc(-c2[nH]nc(-c3ccc4c(c3)CCN(C)C4)c2C(C)C)cn2ncnc12 [Example 235, 6-(4-isopropyl-5-(8-methyl-[1,2,4]triazolo[1,5-a]pyridin-6-yl)-1H-pyrazol-3-yl)-2-methyl-1,2,3,4-tetrahydroisoquinoline]
1.01 | 0.84 | 11400 | Cc1cc(-c2[nH]nc(CN(C)C)c2C(C)C)cn2ncnc12 [Example 184, 1-(4-isopropyl-5-(8-methyl-[1,2,4]triazolo[1,5-a]pyridin-6-yl)-1H-pyrazol-3-yl)-N,N-dimethylmethanamine]
1.94 | 3.14 | 40700 | Cc1cc(-c2[nH]nc(C(=O)N[C@H]3CC[C@@H](NCC4CCCC4)CC3)c2C(C)C)cn2ncnc12 [Example 94]
1.59 | 0.21 | 5920 | Cc1cc(-c2[nH]nc(CNC3CCN(C(C)C)CC3)c2C(C)C)cn2ncnc12 [Example 186]
